Converted amounts (≈) assume the structure as drawn. Where two headings read alike, the source gives them in different places.
Columns and labels:
[1] = Distribution of compound in sebaceous glands and blood of golden hamsters after single skin application; format: in vivo; details: golden hamsters, administration via skin application; listed as amorphous substance of the compound of formula I
Description: 6 male golden hamsters were selected for the experiment, and randomly divided evenly into 2 groups, with three golden hamsters per group. All animals were fasted overnight before administration, and were administered via a route of single application. Sampling was performed at specific time points after administration. Specific information on animal grouping, administration, sampling, etc. were detailed in Table 6.
The amorphous substance of the compound of formula I was weighed and placed in a 50 mL centrifugal tube. A mixed solvent (consisting of 75% v/v ethanol, 15% v/v glyceryl tri (2-ethylhexanoate) and 10% v/v glycerin) was added. After vortexing, heating was performed at 60° C. until the amorphous substance of the compound of formula I was completely dissolved. The amorphous substances of the compound of formula I in the two groups were prepared at 30 mg/mL and 100 mg/mL, respectively, and stored at room temperature in the dark.
After administration, blood was collected into blood collection tubes containing a heparin sodium anticoagulant at corresponding time points. Immediately after collection of whole blood, the blood collection tubes were gently shaken and placed on ice, and then centrifuged (4° C., 4000 rpm, 10 min). The supernatant plasma samples (plasma volume ≥100 μL) were collected, and stored in a refrigerator at about −80° C. The plasma samples were collected for 8 h for analysis.

[2] = Solubility of amorphous substance in solvent systems (supersaturated solution, oscillated 24 h at room temperature, HPLC); format: physicochemical; details: for solubility at 24 h: thermodynamic from solid
Description: The amorphous substance of the compound of formula I was prepared into supersaturated solutions with different solvents, and oscillated under a room temperature condition (a constant temperature). After oscillating for 24 h, sampling was performed, and the content of the sample was detected by HPLC under condition 1.
Condition 1: • Chromatographic column: C18 (150 mm×4.6 mm×3.5 μm); • Mobile phase: binary mobile phase system, mobile phase A was 0.1% formic acid in water, mobile phase B was acetonitrile; • Elution time: 68 min; • Elution mode: gradient elution (in the gradient elution process, mobile phase A had the maximum volume percentage of 95% and the minimum volume percentage of 10%); • Detection wavelength: 270 nm.

In the case of Cc1ncsc1-c1ccc(CNC(=O)[C@@H]2C[C@@H](O)CN2C(=O)[C@@H](NC(=O)COCCCCOc2ccc(-c3ccc(N4C(=S)N(c5ccc(C#N)c(C(F)(F)F)c5F)C(=O)C4(C)C)cn3)cc2)C(C)(C)C)cc1, the “distribution between sebaceous glands and blood after skin application” value [1] is reported as “can enter sebaceous glands but cannot enter blood”, the Solubility ([2]; Dehydrated alcohol 35%-propylene glycol 45%-water 20% (w/w)) is reported as greater than 154310 µg/mL and the Solubility ([2]; Dehydrated alcohol 40%-propylene glycol 50%-water 10% (w/w)) is reported as greater than 64560 µg/mL. It also gave a solubility at 24 h ([2]; dehydrated alcohol 10%-propylene glycol 20%-water 70% (w/w), aqueous with cosolvent or surfactant or cyclodextrin, Dehydrated alcohol 10%-propylene glycol 20%-water 70% (w/w), read-out: Solubility) of 30 µg/mL (≈ 0.0288 mM), a solubility at 24 h ([2]; dehydrated alcohol 10%-propylene glycol 30%-water 60% (w/w), aqueous with cosolvent or surfactant or cyclodextrin, Dehydrated alcohol 10%-propylene glycol 30%-water 60% (w/w), read-out: Solubility) of 450 µg/mL (≈ 0.431 mM) and a solubility at 24 h ([2]; dehydrated alcohol 10%: water 90% (w/w), aqueous with cosolvent or surfactant or cyclodextrin, Dehydrated alcohol 10%: water 90% (w/w), read-out: 24 h solubility) of 140 µg/mL (≈ 0.134 mM). For the same molecule, the solubility at 24 h ([2]; dehydrated alcohol 20%-propylene glycol 20%-water 60% (w/w), aqueous with cosolvent or surfactant or cyclodextrin, Dehydrated alcohol 20%-propylene glycol 20%-water 60% (w/w), read-out: Solubility) was 80 µg/mL (≈ 0.0767 mM), the solubility at 24 h ([2]; dehydrated alcohol 20%-propylene glycol 30%-water 50% (w/w), aqueous with cosolvent or surfactant or cyclodextrin, Dehydrated alcohol 20%-propylene glycol 30%-water 50% (w/w), read-out: Solubility) was 440 µg/mL (≈ 0.422 mM) and the solubility at 24 h ([2]; dehydrated alcohol 20%-propylene glycol 40%-water 40% (w/w), aqueous with cosolvent or surfactant or cyclodextrin, Dehydrated alcohol 20%-propylene glycol 40%-water 40% (w/w), read-out: Solubility) was 3790 µg/mL (≈ 3.63 mM). It also gave a solubility at 24 h ([2]; dehydrated alcohol 20%-propylene glycol 50%-water 30% (w/w), aqueous with cosolvent or surfactant or cyclodextrin, Dehydrated alcohol 20%-propylene glycol 50%-water 30% (w/w), read-out: Solubility) of 12600 µg/mL (≈ 12.1 mM), a solubility at 24 h ([2]; dehydrated alcohol 20%: water 80% (w/w), aqueous with cosolvent or surfactant or cyclodextrin, Dehydrated alcohol 20%: water 80% (w/w), read-out: 24 h solubility) of 140 µg/mL (≈ 0.134 mM) and a solubility at 24 h ([2]; dehydrated alcohol 30%: water 70% (w/w), aqueous with cosolvent or surfactant or cyclodextrin, Dehydrated alcohol 30%: water 70% (w/w), read-out: 24 h solubility) of 110 µg/mL (≈ 0.105 mM). The solubility at 24 h ([2]; dehydrated alcohol 35%-propylene glycol 45%-water 20% (w/w), aqueous with cosolvent or surfactant or cyclodextrin, Dehydrated alcohol 35%-propylene glycol 45%-water 20% (w/w), read-out: Solubility) was greater than 154000 µg/mL, the solubility at 24 h ([2]; dehydrated alcohol 40%-propylene glycol 50%-water 10% (w/w), aqueous with cosolvent or surfactant or cyclodextrin, Dehydrated alcohol 40%-propylene glycol 50%-water 10% (w/w), read-out: Solubility) was greater than 64600 µg/mL and the solubility at 24 h ([2]; dehydrated alcohol 40%: water 60% (w/w), aqueous with cosolvent or surfactant or cyclodextrin, Dehydrated alcohol 40%: water 60% (w/w), read-out: 24 h solubility) was 510 µg/mL (≈ 0.489 mM). The solubility at 24 h ([2]; dehydrated alcohol 60%: water 40% (w/w), organic solvent or mixture, Dehydrated alcohol 60%: water 40% (w/w), read-out: 24 h solubility) was 26000 µg/mL (≈ 24.9 mM), the solubility at 24 h ([2]; dehydrated alcohol 70%: water 30% (w/w), organic solvent or mixture, Dehydrated alcohol 70%: water 30% (w/w), read-out: 24 h solubility) was greater than 34900 µg/mL and the solubility at 24 h ([2]; dehydrated alcohol 80%: water 20% (w/w), organic solvent or mixture, Dehydrated alcohol 80%: water 20% (w/w), read-out: 24 h solubility) was greater than 42100 µg/mL. The solubility at 24 h ([2]; dehydrated alcohol 90%: water 10% (w/w), organic solvent or mixture, Dehydrated alcohol 90%: water 10% (w/w), read-out: 24 h solubility) was greater than 77700 µg/mL, the solubility at 24 h ([2]; dehydrated alcohol, organic solvent or mixture, solvent: Dehydrated alcohol, read-out: 24 h solubility) was greater than 54000 µg/mL and the solubility at 24 h ([2]; dehydrated alcohol-PEG400-water solvent mixture, aqueous with cosolvent or surfactant or cyclodextrin, Dehydrated alcohol 10%-PEG400 10%-water 80% (w/w), read-out: Solubility) was 10 µg/mL (≈ 0.00959 mM). The solubility at 24 h ([2]; dehydrated alcohol-PEG400-water solvent mixture, aqueous with cosolvent or surfactant or cyclodextrin, Dehydrated alcohol 10%-PEG400 20%-water 70% (w/w), read-out: Solubility) was 20 µg/mL (≈ 0.0192 mM), the solubility at 24 h ([2]; dehydrated alcohol-PEG400-water solvent mixture, aqueous with cosolvent or surfactant or cyclodextrin, Dehydrated alcohol 20%-PEG400 20%-water 60% (w/w), read-out: Solubility) was 160 µg/mL (≈ 0.153 mM) and the solubility at 24 h ([2]; dehydrated alcohol-PEG400-water solvent mixture, aqueous with cosolvent or surfactant or cyclodextrin, Dehydrated alcohol 20%-PEG400 30%-water 50% (w/w), read-out: Solubility) was 910 µg/mL (≈ 0.872 mM). The solubility at 24 h ([2]; dehydrated alcohol-PEG400-water solvent mixture, aqueous with cosolvent or surfactant or cyclodextrin, Dehydrated alcohol 20%-PEG400 40%-water 40% (w/w), read-out: Solubility) was 7900 µg/mL (≈ 7.57 mM), the solubility at 24 h ([2]; dehydrated alcohol-PEG400-water solvent mixture, aqueous with cosolvent or surfactant or cyclodextrin, Dehydrated alcohol 30%-PEG400 10%-water 60% (w/w), read-out: Solubility) was 310 µg/mL (≈ 0.297 mM) and the solubility at 24 h ([2]; dehydrated alcohol-PEG400-water solvent mixture, aqueous with cosolvent or surfactant or cyclodextrin, Dehydrated alcohol 30%-PEG400 20%-water 50% (w/w), read-out: Solubility) was 1950 µg/mL (≈ 1.87 mM). The solubility at 24 h ([2]; dehydrated alcohol-PEG400-water solvent mixture, aqueous with cosolvent or surfactant or cyclodextrin, Dehydrated alcohol 30%-PEG400 30%-water 40% (w/w), read-out: Solubility) was 11600 µg/mL (≈ 11.1 mM), the solubility at 24 h ([2]; dehydrated alcohol-PEG400-water solvent mixture, aqueous with cosolvent or surfactant or cyclodextrin, Dehydrated alcohol 30%-PEG400 40%-water 30% (w/w), read-out: Solubility) was 89200 µg/mL (≈ 85.5 mM) and the solubility at 24 h ([2]; dehydrated alcohol-PEG400-water solvent mixture, aqueous with cosolvent or surfactant or cyclodextrin, Dehydrated alcohol 35%-PEG400 30%-water 35% (w/w), read-out: Solubility) was 35700 µg/mL (≈ 34.2 mM). It also gave a solubility at 24 h ([2]; dehydrated alcohol-PEG400-water solvent mixture, aqueous with cosolvent or surfactant or cyclodextrin, Dehydrated alcohol 35%-PEG400 35%-water 30% (w/w), read-out: Solubility) of 117000 µg/mL (≈ 112 mM), a solubility at 24 h ([2]; dehydrated alcohol-PEG400-water solvent mixture, aqueous with cosolvent or surfactant or cyclodextrin, Dehydrated alcohol 35%-PEG400 40%-water 25% (w/w), read-out: Solubility) greater than 181000 µg/mL and a solubility at 24 h ([2]; dehydrated alcohol-PEG400-water solvent mixture, aqueous with cosolvent or surfactant or cyclodextrin, Dehydrated alcohol 35%-PEG400 45%-water 20% (w/w), read-out: Solubility) greater than 258000 µg/mL. The solubility at 24 h ([2]; dehydrated alcohol-PEG400-water solvent mixture, aqueous with cosolvent or surfactant or cyclodextrin, Dehydrated alcohol 40%-PEG400 10%-water 50% (w/w), read-out: Solubility) was 3350 µg/mL (≈ 3.21 mM), the solubility at 24 h ([2]; dehydrated alcohol-PEG400-water solvent mixture, aqueous with cosolvent or surfactant or cyclodextrin, Dehydrated alcohol 40%-PEG400 20%-water 40% (w/w), read-out: Solubility) was 17400 µg/mL (≈ 16.7 mM) and the solubility at 24 h ([2]; dehydrated alcohol-PEG400-water solvent mixture, aqueous with cosolvent or surfactant or cyclodextrin, Dehydrated alcohol 40%-PEG400 30%-water 30% (w/w), read-out: Solubility) was 111000 µg/mL (≈ 106 mM). It also gave a solubility at 24 h ([2]; dehydrated alcohol-PEG400-water solvent mixture, aqueous with cosolvent or surfactant or cyclodextrin, Dehydrated alcohol 40%-PEG400 40%-water 20% (w/w), read-out: Solubility) greater than 49100 µg/mL, a solubility at 24 h ([2]; dehydrated alcohol-PEG400-water solvent mixture, aqueous with cosolvent or surfactant or cyclodextrin, Dehydrated alcohol 50%-PEG400 30%-water 20% (w/w), read-out: Solubility) greater than 49700 µg/mL and a solubility at 24 h ([2]; dehydrated alcohol-PEG400-water solvent mixture, aqueous with cosolvent or surfactant or cyclodextrin, Dehydrated alcohol 50%-PEG400 40%-water 10% (w/w), read-out: Solubility) greater than 48500 µg/mL. The solubility at 24 h ([2]; dehydrated alcohol-propylene glycol-water solvent mixture, aqueous with cosolvent or surfactant or cyclodextrin, Dehydrated alcohol 10%-propylene glycol 40%-water 50% (w/w), read-out: Solubility) was 540 µg/mL (≈ 0.518 mM), the solubility at 24 h ([2]; dehydrated alcohol-propylene glycol-water solvent mixture, aqueous with cosolvent or surfactant or cyclodextrin, Dehydrated alcohol 10%-propylene glycol 50%-water 40% (w/w), read-out: Solubility) was 1490 µg/mL (≈ 1.43 mM) and the solubility at 24 h ([2]; dehydrated alcohol-propylene glycol-water solvent mixture, aqueous with cosolvent or surfactant or cyclodextrin, Dehydrated alcohol 20%-propylene glycol 10%-water 70% (w/w), read-out: Solubility) was 40 µg/mL (≈ 0.0383 mM). For the same molecule, the solubility at 24 h ([2]; dehydrated alcohol-propylene glycol-water solvent mixture, aqueous with cosolvent or surfactant or cyclodextrin, Dehydrated alcohol 30%-propylene glycol 10%-water 60% (w/w), read-out: Solubility) was 200 µg/mL (≈ 0.192 mM), the solubility at 24 h ([2]; dehydrated alcohol-propylene glycol-water solvent mixture, aqueous with cosolvent or surfactant or cyclodextrin, Dehydrated alcohol 30%-propylene glycol 20%-water 50% (w/w), read-out: Solubility) was 2520 µg/mL (≈ 2.42 mM) and the solubility at 24 h ([2]; dehydrated alcohol-propylene glycol-water solvent mixture, aqueous with cosolvent or surfactant or cyclodextrin, Dehydrated alcohol 30%-propylene glycol 30%-water 40% (w/w), read-out: Solubility) was 6390 µg/mL (≈ 6.13 mM). The solubility at 24 h ([2]; dehydrated alcohol-propylene glycol-water solvent mixture, aqueous with cosolvent or surfactant or cyclodextrin, Dehydrated alcohol 30%-propylene glycol 40%-water 30% (w/w), read-out: Solubility) was 25200 µg/mL (≈ 24.2 mM), the solubility at 24 h ([2]; dehydrated alcohol-propylene glycol-water solvent mixture, aqueous with cosolvent or surfactant or cyclodextrin, Dehydrated alcohol 30%-propylene glycol 50%-water 20% (w/w), read-out: Solubility) was greater than 178000 µg/mL and the solubility at 24 h ([2]; dehydrated alcohol-propylene glycol-water solvent mixture, aqueous with cosolvent or surfactant or cyclodextrin, Dehydrated alcohol 35%-propylene glycol 35%-water 30% (w/w), read-out: Solubility) was 52300 µg/mL (≈ 50.1 mM). For the same molecule, the solubility at 24 h ([2]; dehydrated alcohol-propylene glycol-water solvent mixture, aqueous with cosolvent or surfactant or cyclodextrin, Dehydrated alcohol 35%-propylene glycol 40%-water 25% (w/w), read-out: Solubility) was 62700 µg/mL (≈ 60.1 mM).

Source: patent US20250129062A1, “AMORPHOUS SUBSTANCES, CRYSTALS, PHARMACEUTICAL COMPOSITIONS, PREPARATION METHODS AND USES OF THIOHYDANTOIN COMPOUND OR PHARMACEUTICALLY ACCEPTABLE SALT THEREOF” (SUZHOU KINTOR PHARMACEUTICALS, INC., priority 2021, published 2025)
